pIC50: −log10 of the molar value.
Experiments:
PARG (389-976) = PARG (389-976) (Homo sapiens (Human), UniProt Q86W56); assay: PARG enzyme inhibition assay (TR-FRET); format: biochemical
Procedure: PARG in vitro assays were conducted in standard 384-well plates in a total volume of 15 μL. 5 μL of PARG (389-976) (manufactured by Chempartner Chemical Co., Ltd.) in buffer (50 mM Tris-HCL 7.5, 30 mM KCl, 1 mM EDTA, 3 mM DTT, tween-20 0.01%, BSA 0.025%) was added at a final concentration of 1.5 pM to the 384-well plates containing the compounds to be tested, which was incubated for 30 min at room temperature. To the above mixture was added 5 μL Bio PARylated His-TEV-PARP1(2-1014) substrate (manufactured by Chempartner Chemical Co., Ltd.) at a final concentration of 12 nM, after addition, the resulting mixture was incubated for 30 minutes at room temperature. Then to the mixture was added detection reagent (5 μL) which was buffered with 50 mM Tris-HCL 7.5, 30 mM KCl, 1 mM EDTA, 3 mM DTT, tween-20 0.01%, BSA 0.025%, and consisted of 3 μM of compound PDD00017273 and 9 nM Mab anti-6HIS XL665 (Cisbio: 61HISXLA) and 0.9 nM streptavidin affinity terbium cryptate (Cisbio:610SATLA), all at 3× working concentrations (final concentrations of 1 μM, 3 nM and 0.3 nM, respectively). After 120 min incubation in the dark at room temperature, TR-FRET signals were measured at Ex 340 and Em 665 and Em 615. The ratio for each well was calculated as Em 665/Em 615 and the compound inhibition rate was calculated based on the obtained data.

HCC1428 = assay: CTG assay for proliferation inhibition of cell lines; format: cell-based; settings: HCC1428, 7 days, CellTiter Glo
Procedure: (§1) The assay was conducted on either 384-well plates or 96-well plates. The procedures are as follows:
(§2) The cell suspensions were added to 384- or 96-well plates (384-well plate: 50 μL; 96-well plate: 100 μL) except for peripheral wells. The plates were incubated in a carbon dioxide incubator overnight, HCC1395, HCC1428 and NCI-H460 were placed in a carbon dioxide incubator of 5%, […] overnight. Prepared compounds (10 concentration gradients by serial 3-fold dilution) were added to the wells using the HPD300 micro-dosing instrument. The cell plates were incubated in a carbon dioxide incubator for 7 days. HCC1395, HCC1428 and NCI-H460 were incubated in a 5%, 37° CO2 incubator. On the day of plate measurement, 384- or 96-well plates were first equilibrated at room temperature for 10-30 minutes, then to the 384- or 96-well plate was added CellTiter Glo reagent (384-well plate: 25 μL; 96-well plate: 100 μL), shaken for 10 minutes away from light, and incubated for 10 minutes. The incubated plates were placed into Victor NIVO reader plates, and the pharmacodynamic inhibition curves were plotted and IC50 values were calculated using XLFit.

HCC1395 = assay: as above; format: cell-based; settings: HCC1395, 7 days, CellTiter Glo
Procedure: as §1, §2

[1] = class symbol, Bio PARylated His-TEV-PARP1 substrate, TR-FRET
[2] = numeric value in parentheses under the class symbol

Sequence of PARG (389-976) (Q86W56 389-976): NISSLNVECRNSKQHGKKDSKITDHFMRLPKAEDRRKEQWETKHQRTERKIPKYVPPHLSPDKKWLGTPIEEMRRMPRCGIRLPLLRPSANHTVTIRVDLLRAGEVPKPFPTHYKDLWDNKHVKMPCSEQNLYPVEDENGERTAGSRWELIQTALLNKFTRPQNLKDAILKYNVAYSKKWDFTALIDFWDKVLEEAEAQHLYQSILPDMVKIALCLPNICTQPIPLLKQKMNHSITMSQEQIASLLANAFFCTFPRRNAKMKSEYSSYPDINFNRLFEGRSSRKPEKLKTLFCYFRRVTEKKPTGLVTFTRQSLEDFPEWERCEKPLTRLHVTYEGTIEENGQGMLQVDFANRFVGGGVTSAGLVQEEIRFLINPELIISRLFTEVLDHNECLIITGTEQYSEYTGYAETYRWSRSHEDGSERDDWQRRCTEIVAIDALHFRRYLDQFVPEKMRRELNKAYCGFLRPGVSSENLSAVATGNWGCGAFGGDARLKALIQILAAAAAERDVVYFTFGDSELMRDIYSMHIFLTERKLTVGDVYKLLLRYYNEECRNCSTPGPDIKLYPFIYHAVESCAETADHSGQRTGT

SMILES | pIC50 (PARG (389-976); [1]) | IC50 (HCC1428) | pIC50 (PARG (389-976); [2]) | IC50 (HCC1395)
CC(C)S(=O)(=O)N1CC=C(c2cc(S(=O)(=O)NC3(C#N)CC3)cc3c(-c4nnc(C(F)F)s4)nn(C)c23)C(F)(F)C1 [Compound 67] | > 9.00 | 0.203 µM |  | 
CC(C)S(=O)(=O)c1ccc(-c2cc(S(=O)(=O)NC3(C#N)CC3)cc3c(-c4nnc(C(F)(F)F)s4)nn(C)c23)nc1 [Compound 49] | 6.00 to 7.00 |  |  | 
CC(C)S(=O)(=O)N1CC=C(c2cc(S(=O)(=O)NC3(C#N)CC3)cc3c2ccn3-c2nnc(C(F)(F)F)s2)CC1 [Compound 65] | 8.00 to 9.00 |  |  | 
COCCn1nc(-c2nnc(C(F)F)s2)c2cc(S(=O)(=O)NC3(C#N)CC3)cc(N3CCN(S(=O)(=O)C(C)C)CC3)c21 [Compound 2] | > 9.00 | 0.413 µM | 9.57 | 
CC(C)S(=O)(=O)N1CC=C(c2cc(S(=O)(=O)NC3(C#N)CC3)cc3c(-c4nnc(C(F)F)o4)nn(C)c23)CC1 [Compound 6] | > 9.00 |  |  | 0.442 µM
CC(C)S(=O)(=O)N1CCN(c2cc(S(=O)(=O)NC3(C#N)CC3)cc3c2cnn3-c2nnc(C(F)F)s2)CC1 [Compound 8] | 8.00 to 9.00 |  |  | 
CC(C)CS(=O)(=O)N1CC=C(c2cc(S(=O)(=O)NC3(C#N)CC3)cc3c(-c4nnc(C(F)F)s4)nn(C)c23)CC1 [Compound 13] | 8.00 to 9.00 |  |  | 
CC(C)S(=O)(=O)c1ncc(-c2cc(S(=O)(=O)NC3(C#N)CC3)cc3c(-c4nnc(C(F)F)s4)nn(C)c23)cn1 [Compound 43] | 6.00 to 7.00 |  |  | 
CC(C)S(=O)(=O)N1CC=C(c2cc(S(=O)(=O)NC3(C#N)CC3)cc3c(-c4nnc(C(F)(F)F)s4)nn(CC4CNC4)c23)CC1 [Compound 61] | > 9.00 | 1.68 µM |  | 1.63 µM
CC(C)S(=O)(=O)N1CCC(O)(c2cc(S(=O)(=O)NC3(C#N)CC3)cc3c(-c4nnc(C(F)F)s4)n[nH]c23)CC1 [Compound 27] | 8.00 to 9.00 |  |  | 
CC(C)S(=O)(=O)N1CC=C(c2cc(S(=O)(=O)NC3(C(N)=O)CC3)cc3c(-c4nnc(C(F)(F)F)s4)nn(C)c23)CC1 [Compound 57] | 7.00 to 8.00 |  |  | 
CC(C)S(=O)(=O)N1CC=C(c2cc(S(=O)(=O)NC3(C#N)CC3)cc3c(-c4cc(C(F)(F)F)nn4C)nn(C)c23)CC1 [Compound 81] | 6.00 to 7.00 |  |  | 
CC(C)S(=O)(=O)N1CCC(c2cc(S(=O)(=O)NC3(C#N)CC3)cc3c(-c4nnc(C(F)F)s4)nn(C)c23)=C(CN(C)C)C1 [Compound 71] | > 9.00 | 0.342 µM |  | 0.308 µM
CN(C)S(=O)(=O)N1CCN(c2cc(S(=O)(=O)NC3(C#N)CC3)cc3c(-c4nnc(C(F)F)s4)nn(C)c23)CC1 [Compound 3] | 8.00 to 9.00 |  | 8.79 | 0.386 µM
CC(C)S(=O)(=O)N1CC=C(c2cc(S(=O)(=O)NC3(C#N)CC3)cc3c(-c4nnc(C(F)F)s4)nn(CC(N)=O)c23)CC1 [Compound 66] | 8.00 to 9.00 |  |  | 
CC(C)S(=O)(=O)N1CC=C(c2cc(S(=O)(=O)NC3(C(N)=O)CC3)cc3c(-c4nnc(C(F)F)s4)nn(C)c23)CC1 [Compound 17] | 8.00 to 9.00 |  |  | 
CC(C)S(=O)(=O)N1CCC(c2cc(S(=O)(=O)NC3(C#N)CC3)cc3c(-c4nnc(C(F)(F)F)s4)nn(C)c23)=C(CN(C)C)C1 [Compound 74] | 8.00 to 9.00 | 0.0621 µM |  | 0.156 µM
CC(C)S(=O)(=O)N1CC=C(c2cc(S(=O)(=O)NC3(C#N)CC3)cc3c(-c4nnc(C(F)(F)F)s4)nn(Cc4ccccc4)c23)CC1 [Compound 62] | 7.00 to 8.00 |  |  | 
CC1=C(c2cc(S(=O)(=O)NC3(C#N)CC3)cc3c(-c4nnc(C(F)(F)F)s4)nn(C)c23)CCN(S(=O)(=O)C(C)C)C1 [Compound 75] | > 9.00 |  |  | 0.0352 µM
Cn1nc(-c2nnc(C(F)(F)F)s2)c2cc(S(=O)(=O)NC3(C#N)CC3)cc(C3=CCN(S(=O)(=O)c4ccccc4)CC3)c21 [Compound 50] | 7.00 to 8.00 | 2.33 µM |  | 

SMILES | pIC50 (PARG (389-976); [1]) | IC50 (HCC1428) | pIC50 (PARG (389-976); [2]) | IC50 (HCC1395)
CC(C)[S+]([O-])c1ccc(-c2cc(S(=O)(=O)NC3(C#N)CC3)cc3c(-c4nnc(C(F)(F)F)s4)nn(C)c23)cn1 (centres unmarked) [Compound 46] | > 9.00 | 1.7 µM |  | 
CC(C)S(=O)(=O)c1ccc(-c2cc(S(=O)(=O)NC3(C#N)CC3)cc3c(-c4nnc(C(F)(F)F)s4)nn(C)c23)cn1 [Compound 47] | 8.00 to 9.00 | 1.91 µM |  | 
CC(C)S(=O)(=O)N1CCN(c2cc(S(=O)(=O)NC3(C#N)CC3)cc3c(-c4nnc(C(F)(F)F)s4)nn(C)c23)C=N1 [Compound 85] | > 9.00 |  |  | 
CC(C)S(=O)(=O)N1CCC(O)(c2cc(S(=O)(=O)NC3(C#N)CC3)cc3c(-c4nnc(C(F)F)s4)nn(C)c23)CC1 [Compound 28] | 8.00 to 9.00 |  |  | 
Cc1cc(Cn2c(=O)n(Cc3cnc(C)s3)c(=O)c3cc(S(=O)(=O)NC4(C)CC4)ccc32)n(C)n1 [PDD 00017273, reference compound] | 8.00 to 9.00 |  |  | 
CC(C)S(=O)(=O)N1CCC=C(c2cc(S(=O)(=O)NC3(C#N)CC3)cc3c(-c4nnc(C(F)F)s4)nn(C)c23)C1 [Compound 4] | 8.00 to 9.00 |  |  | 
CC(C)S(=O)(=O)N1CC=C(c2cc(S(=O)(=O)NC3(C#N)CC3)cc3c2nnn3-c2nnc(C(F)(F)F)s2)CC1 [Compound 80] | 7.00 to 8.00 |  |  | 
CC(C)S(=O)(=O)N1CCC(c2cc(S(=O)(=O)NC3(C#N)CC3)cc3c(-c4nnc(C(F)F)s4)nn(C)c23)=C(C(=O)O)C1 [Compound 34] | 7.00 to 8.00 |  |  | 
CC(C)S(=O)(=O)N1CCC(c2cc(S(=O)(=O)NC3(C#N)CC3)cc3c(-c4nnc(C(F)F)s4)nn(C)c23)=C(F)C1 [Compound 68] | > 9.00 | 0.47 µM |  | 
COCCn1nc(-c2nnc(C(F)F)s2)c2cc(S(=O)(=O)NC3(C#N)CC3)cc(C3=CCN(S(=O)(=O)C(C)C)CC3)c21 [Compound 1] | > 9.00 |  | 9.70 | 
CC(C)S(=O)(=O)c1ccc(-c2cc(S(=O)(=O)NC3(C#N)CC3)cc3c(-c4nnc(C(F)F)s4)nn(C)c23)nc1 [Compound 63] | 6.00 to 7.00 |  |  | 
CC(C)S(=O)(=O)N1CCC(c2cc(S(=O)(=O)NC3(C#N)CC3)cc3c(-c4nnc(C(F)(F)F)s4)nn(C)c23)=C(C(=O)O)C1 [Compound 54] | 7.00 to 8.00 |  |  | 
CC(C)S(=O)(=O)N1CCC(c2cc(S(=O)(=O)NC3(C#N)CC3)cc3c(-c4nnc(C(F)(F)F)s4)nn(C)c23)=C(C#N)C1 [Compound 64] | > 9.00 | 0.0882 µM |  | 
CC(C)[S+]([O-])c1ncc(-c2cc(S(=O)(=O)NC3(C#N)CC3)cc3c(-c4nnc(C(F)F)s4)nn(C)c23)cn1 (centres unmarked) [Compound 42] | 8.00 to 9.00 |  |  | 
Cn1nc(-c2nnc(C(F)(F)F)s2)c2cc(S(=O)(=O)NC3(C#N)CC3)cc(C3=CCN(S(=O)(=O)c4cccnc4)CC3)c21 [Compound 51] | 8.00 to 9.00 | 2.52 µM |  | 
CC(C)SC1CC=C(c2cc(S(=O)(=O)NC3(C#N)CC3)cc3c(-c4nnc(C(F)F)s4)nn(C)c23)CC1 (centres unmarked) [Compound 29] | 7.00 to 8.00 |  |  | 
Cn1nc(-c2nnc(C(F)F)s2)c2cc(S(=O)(=O)NC3(C#N)CC3)cc(C3=CCN(S(=O)(=O)C4CC4)CC3)c21 [Compound 11] | > 9.00 |  |  | 
CC(C)Sc1ncc(-c2cc(S(=O)(=O)NC3(C#N)CC3)cc3c(-c4nnc(C(F)F)s4)nn(C)c23)cn1 [Compound 41] | 6.00 to 7.00 |  |  | 
CC(C)S(=O)(=O)N1CC=C(c2cc(S(=O)(=O)NC3(C#N)CC3)cc3c(-c4nnc(C(F)F)s4)csc23)CC1 [Compound 10] | 8.00 to 9.00 |  |  | 

Source: US20250042891A1, “Compound containing structure of a heteroaromatic ring, pharmaceutical composition thereof and application thereof” (SHANGHAI YINGLI PHARMACEUTICAL CO., LTD, priority 2023, published 2025)
